Columns and labels:
[1] = test system: Paymaster 145 RR; assay: Crossing block with hand pollination, boll and seed set (Example 2); type: in vivo, cotton; settings: glyphosate applied as in Example 1 (about 64 oz/acre); end of season
Excerpt: A small isolated crossing block was planted with variety Paymaster 145 RR. Glyphosate was applied as indicated in the previous Example. The intention was to maintain male sterility and to cross pollinate (manually) with pollen from another Paymaster variety to produce actual F1 hybrid seed.

[2] = test system: PM 2200 RR and PM 2326 RR; assay: Spray rate test, fertility scores and seed set after hand pollination (Example 3); type: in vivo, cotton
Protocol: A further test was conducted using the varieties PM 2200 RR and PM 2326 RR, in which 4 levels of glyphosate spray rates were applied at 14 day intervals, beginning at 31 days post planting. The rates used were: 0, 16, 24 and 32 ounces/acre of glyphosate. Fertility scores were taken at roughly 2 day intervals during the season to follow male sterility development. At the same time hand pollination was done on 10 flowers in each treatment (all 3 replicates), also at 2 day intervals for a total of “10 crossing days”. This was to determine the amount of seed set under the various spray regimes and thus infer the degree of female sterility, if any, being induced by the glyphosate applications.

[3] = test system: DP 5414 RR; assay: Effect of glyphosate on soybean yield, male sterility assessed from yield (Example 4); type: in vivo
Excerpt: (§1) The glyphosate-tolerant soybean varieties DP 7220 RR, DP 6299 RR and DP 5414 RR were planted in replicated four row plots 18 feet in length, at planting and during growing season, end trimmed to 14.5 feet just prior to harvest to remove end effects in yield. Glyphosate (RoundUp® Ultra Max, Monsanto Co.) was applied starting 14 days post planting, with 5 applications at approximately 10 day intervals thereafter. The sprays consisted of a single 2% solution of the RoundUp® Ultra Max commercial glyphosate product, which is a 50% solution of glyphosate. This is equivalent to 16.25 ml/l or 2.17 oz/gal. This solution was used for all treatments, and was applied to runoff. Four rates of application were used: 0 ounces/acre (oz/acre) (control), 13.5 oz/acre (equivalent to the 16 oz/acre of the 41% formulation used in Examples 1-3), 26 oz/acre (equivalent to the 32 oz/acre used for Examples 1-3) and 52 oz/acre (equivalent to the 64 oz/acre used for Examples 1-3).
(§2) The two middle rows of each plot were harvested for yield, calculated in bushels/acre (bu/acre) based on this land area. Statistical significance was determined using a standard single-tailed T-test. Male sterility was assessed based on the yield, because soybean is a […] flower (the flowers never open until after fertilization), and thus is almost completely self-pollinated. A statistically significant reduction in the yield would therefore correlate with a decreased rate of fertilization. Pollen production was not assessed in this experiment, but based on the observations made in cotton (Examples 1-3), it is reasonable to conclude that the decrease in fertilization rate in soybeans was due to a decrease in viable pollen production.

[4] = test system: DP 6299 RR; assay: as above; type: in vivo
Excerpt: as §1, §2

[5] = test system: DP 7220 RR; assay: as above; type: in vivo
Excerpt: as §1, §2

[6] = test system: glyphosate-tolerant variety (RR1445) of Coker 312; assay: Glyphosate-induced male sterility in cotton, field plots scored for fertility (Example 1); type: in vivo
Excerpt: A test was designed to determine whether glyphosate-induced male sterility in cotton could be reliably maintained throughout the blooming period.
The plant material used was a glyphosate-tolerant variety (RR1445) of Coker 312 obtained from Monsanto Co. (St. Louis, Mo.). Seed was planted in 25 foot long, single row plots, with a 38 inch row spacing. The test was replicated four times with treatments applied as follows:
Treatment 1: Single spray at 30 days post planting (“30 DPP”);
Treatment 2: Multiple sprays beginning at 30 DPP and repeating every 10 days (“30 DPP+10 D”)
Treatment 3: Multiple sprays beginning at 30 DPP and repeating every 20 days (“30 DPP+20 D”)
Treatment 4: Unsprayed control.
The sprays consisted of a single 2% solution of Roundup® brand glyphosate (41% formulation), which was equivalent to 20 ml/l, or 22/3 oz/gal. This solution was used in all spray treatments, and was applied to runoff. […] At the onset of bloom (mid-July) and through mid September, each plot was scored for fertility approximately every 5 days as follows:
0=Complete sterility; no pollen present upon rubbing anthers between fingers;
1=Practically no pollen present upon rubbing anthers, no self pollination possible because anthers never shed pollen, male-sterile for all practical purposes;
2=Very little pollen upon rubbing anthers, no natural pollen shed, no self pollination possible, male sterile for all practical purposes;
3=Some pollen present when anthers rubbed, a minimal amount of natural pollen shed on lower anthers, a very small amount of self pollination possible with insect activity;
4=Anthers shed pollen in sufficient amounts at all anther levels to self pollinate;
5=Anthers shed pollen in normal amounts from all anthers.

O=C(O)CNCP(=O)(O)O [glyphosate]
Boll set of hand pollinated flowers (female sterility) [1]: practically all hand pollinated flowers had not set viable bolls | Female sterility ([2]; 24 oz/acre rate at roughly 10 day intervals (best effect)): minimal or no female sterility | Male sterility ([2]; all rates used: 16, 24 and 32 ounces/acre, 14 day intervals from 31 days post planting): produced male sterility | Boll and hybrid seed set after hand pollination ([2]; all the spray rates tested (16, 24, 32 oz/acre)): Full, mature bolls bearing hybrid seed were produced | Level of male sterility induced ([2]; both varieties PM 2200 RR and PM 2326 RR, small varietal difference): adequate for hybrid production | Male sterility (assessed from yield) ([3]; 13.5 to 52 oz/acre): complete male-sterility was not achieved | Average Difference from Control ([3]; application rate 13.5 oz./acre): 2.05 oz./acre | Yield ([3]; application rate 13.5 oz./acre): 32.53 bu/acre | Average Difference from Control ([3]; application rate 26 oz./acre): 8.30 oz./acre | Yield ([3]; application rate 26 oz./acre): 26.28 bu/acre | Average Difference from Control ([3]; application rate 52 oz./acre): 8.65 oz./acre | Yield ([3]; application rate 52 oz./acre): 25.93 bu/acre | Male sterility (assessed from yield) ([4]; 13.5 to 52 oz/acre): complete male-sterility was not achieved | Average Difference from Control ([4]; application rate 13.5 oz./acre): 1.23 oz./acre | Yield ([4]; application rate 13.5 oz./acre): 36.45 bu/acre | Average Difference from Control ([4]; application rate 26 oz./acre): 9.65 oz./acre | Yield ([4]; application rate 26 oz./acre): 28.03 bu/acre | Average Difference from Control ([4]; application rate 52 oz./acre): 10.18 oz./acre | Yield ([4]; application rate 52 oz./acre): 27.50 bu/acre | Male sterility (assessed from yield) ([5]; 13.5 to 52 oz/acre): complete male-sterility was not achieved | Average Difference from Control ([5]; application rate 13.5 oz./acre): 4.05 oz./acre | Yield ([5]; application rate 13.5 oz./acre): 35.95 bu/acre | Average Difference from Control ([5]; application rate 26 oz./acre): 8.27 oz./acre | Yield ([5]; application rate 26 oz./acre): 31.73 bu/acre | Average Difference from Control ([5]; application rate 52 oz./acre): 11.55 oz./acre | Yield ([5]; application rate 52 oz./acre): 28.45 bu/acre | Fertility score ([6]; 30 DPP (single spray at 30 days post planting), 2% Roundup about 64 oz/acre, 58 days post planting, score 0 complete sterility to 5 normal pollen, practical sterility 2.75 or below): 1.00 | Fertility score ([6]; 30 DPP + 10 D (sprays from 30 DPP every 10 days), 2% Roundup about 64 oz/acre, 58 days post planting): 1.00 | Fertility score ([6]; 30 DPP + 10 D, 62 days post planting): 1.00 | Fertility score ([6]; 30 DPP + 10 D, 66 days post planting): 1.00 | Fertility score ([6]; 30 DPP + 10 D, 70 days post planting): 1.00 | Fertility score ([6]; 30 DPP + 10 D, 75 days post planting): 1.00 | Fertility score ([6]; 30 DPP + 10 D, 80 days post planting): 1.25 | Fertility score ([6]; 30 DPP + 10 D, 85 days post planting): 1.25 | Fertility score ([6]; 30 DPP + 10 D, 90 days post planting): 1.25 | Fertility score ([6]; 30 DPP + 10 D, 104 days post planting): 1.25 | Fertility score ([6]; 30 DPP + 20 D (sprays from 30 DPP every 20 days), 2% Roundup about 64 oz/acre, 58 days post planting): 1.00 | Fertility score ([6]; 30 DPP + 20 D, 62 days post planting): 1.75 | Fertility score ([6]; 30 DPP + 20 D, 66 days post planting): 2.5 | Fertility score ([6]; 30 DPP + 20 D, 70 days post planting): 2.75 | Fertility score ([6]; 30 DPP + 20 D, 75 days post planting): 2.5 | Fertility score ([6]; 30 DPP + 20 D, 80 days post planting): 1.75 | Fertility score ([6]; 30 DPP + 20 D, 85 days post planting): 1.75 | Fertility score ([6]; 30 DPP + 20 D, 90 days post planting): 1.50 | Fertility score ([6]; 30 DPP + 20 D, 104 days post planting): 1.50 | Fertility score ([6]; 30 DPP single spray, 62 days post planting): 3.00 | Fertility score ([6]; 30 DPP single spray, 66 days post planting): 3.75 | Fertility score ([6]; 30 DPP single spray, 70 days post planting): 4.00 | Fertility score ([6]; 30 DPP single spray, 75 days post planting): 4.25 | Fertility score ([6]; 30 DPP single spray, 80 days post planting): 4.50 | Fertility score ([6]; 30 DPP single spray, 85 days post planting): 5.00 | Fertility score ([6]; 30 DPP single spray, 90 days post planting): 5.00 | Fertility score ([6]; 30 DPP single spray, 104 days post planting): 5.00 | Adverse effects of the multiple sprays (other than male sterility) ([6]; throughout the season, about 64 oz/acre): No adverse effects | Induction of male sterility ([6]; treatment 2 (30 DPP+10 D), about 64 oz/acre): adequate to induce sterility | Induction of male sterility ([6]; treatment 3 (30 DPP+20 D), about 64 oz/acre): adequate to induce sterility
